In US20050245399A1, “Pyrazole derivatives as herbicidal compositions containing them” (ISHIHARA SANGYO KAISHA, LTD., priority 2004, published 2005):

Experiments:
Assay type in all cases: in vivo
[1] = system: barnyardgrass (Echinochloa crus-galli L.): ECHCG; assay: Test Example 1 pre-emergence herbicidal activity, ECHCG; details: Rate 63 g a.i./ha, visually observed 20th to 23rd day after application
Procedure, shortened: (§1)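 Plants were sown in pots of upland field soil and treated the following day, before emergence, with the formulated compound sprayed in 500 L/ha water. Herbicidal effect was judged by eye 20–23 days later on a 0–100% scale.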

[2] = system: crabgrass (Digitaria sanguinalis L.): DIGSA; assay: Test Example 1 pre-emergence herbicidal activity, DIGSA; details: Rate 63 g a.i./ha, visually observed 20th to 23rd day after application
Procedure, shortened: as §1

[3] = system: green foxtail (Setaria viridis L.): SETVI; assay: Test Example 1 pre-emergence herbicidal activity, SETVI; details: Rate 63 g a.i./ha, visually observed 20th to 23rd day after application
Procedure, shortened: as §1

[4] = system: redroot pigweed (Amaranthus retroflexus L.): AMARE; assay: Test Example 1 pre-emergence herbicidal activity, AMARE; details: Rate 63 g a.i./ha, visually observed 20th to 23rd day after application
Procedure, shortened: as §1

[5] = system: prickly sida (Sida spinosa L.): SEDSP; assay: Test Example 1 pre-emergence herbicidal activity, SIDSP; details: Rate 63 g a.i./ha, visually observed 20th to 23rd day after application
Procedure, shortened: as §1

[6] = system: velvetleaf (Abutilon theophrasti): ABUTH; assay: Test Example 1 pre-emergence herbicidal activity, ABUTH; details: Rate 63 g a.i./ha, visually observed 20th to 23rd day after application
Procedure, shortened: as §1

[7] = system: rice (Oryza sativa L.): ORYSA; assay: Test Example 1 pre-emergence herbicidal activity, ORYSA; details: Rate 63 g a.i./ha, visually observed 20th to 23rd day after application
Procedure, shortened: as §1

[8] = system: wheat (Triticum aestivum L.): TRZAX; assay: Test Example 1 pre-emergence herbicidal activity, TRZAX; details: Rate 63 g a.i./ha, visually observed 20th to 23rd day after application
Procedure, shortened: as §1

[9] = system: corn (Zea mays L.): ZEAMX; assay: Test Example 1 pre-emergence herbicidal activity, ZEAMX; details: Rate 63 g a.i./ha, visually observed 20th to 23rd day after application
Procedure, shortened: as §1

[10] = system: soybean (Glycine max Merr.): GLXMA; assay: Test Example 1 pre-emergence herbicidal activity, GLXMA; details: Rate 63 g a.i./ha, visually observed 20th to 23rd day after application
Procedure, shortened: as §1

[11] = system: barnyardgrass (Echinochloa crus-galli L.), ECHCG; assay: Test Example 2 post-emergence (foliage treatment) herbicidal activity, ECHCG; details: 63 g a.i./ha
Procedure, shortened: (§2)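 Seeds are sown in upland soil in pots, and seedlings are sprayed once they reach set leaf stages (pigweed 0.1-1.5, barnyardgrass 1.1-2.1, crabgrass 1.0-2.0, rice 1.0-2). The formulated compound goes on in 500 L/ha water containing 0.1% (v/v) spreader. Effect is judged by eye 20-23 days on, as percent control.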

[12] = system: crabgrass (Digitaria sanguinalis L.), DIGSA; assay: Test Example 2 post-emergence (foliage treatment) herbicidal activity, DIGSA; details: 63 g a.i./ha
Procedure, shortened: as §2

[13] = system: redroot pigweed (Amaranthus retroflexus L.), AMARE; assay: Test Example 2 post-emergence (foliage treatment) herbicidal activity, AMARE; details: 63 g a.i./ha
Description: Upland field soil was put into a 1/170,000 ha pot, and seeds of various plants were sown. Then, when the plants reached predetermined leaf stages {1. barnyardgrass (Echinochloa crus-galli L.), ECHCG: 1.1-2.1 leaf stage, 2. crabgrass (Digitaria sanguinalis L.), DIGSA: 1.0-2.0 leaf stage, 3. green foxtail (Setaria viridis L.), SETVI: 1.0-2.2 leaf stage, 4. redroot pigweed (Amaranthus retroflexus L.), AMARE: 0.1-1.5 leaf stage, 5. prickly sida (Sida spinosa L.), SIDSP: 0.1-0.6 leaf stage, 6. velvetleaf (Abutilon theophrasti), ABUTH: 0.1-0.6 leaf stage, 7. common cocklebur (Xanthium strumarium L.), XANST: 0.1 leaf stage, 8. rice (Oryza sativa L.), ORYSA; 1.0-2 leaf stage, 9. wheat (Triticum aestivum L.), TRZAX: 2.3-3.5 leaf stage, 10. corn (Zea mays L.), ZEAMXN 2.1-2.6 leaf stage, 11. soybean (Glycine max Merr.), GLXMA: primary leaf stage}, a wettable powder or emulsifiable concentrate having the compound of the present invention formulated in accordance with a usual formulation method, was weighed so that the active ingredient would be a predetermined amount, and diluted with water in an amount of 500 L/ha. To the diluted solution, 0.1% (v/v) of an agricultural spreader was added. The herbicide adjusted was applied by a small size sprayer for foliage treatment. On the 20th to 23rd day after the application of the herbicide, the growth of the respective plants was visually observed, and the herbicidal effects were evaluated by growth controlling degrees (%) ranging from 0 (equivalent to the untreated control) to 100 (complete kill), whereby the results shown in Table 5, were obtained. Compound Nos. in Table 5 correspond to Compound Nos. in Table 1 and 2 given hereinbefore.

[14] = system: prickly sida (Sida spinosa L.), SIDSP; assay: Test Example 2 post-emergence (foliage treatment) herbicidal activity, SIDSP; details: 63 g a.i./ha
Procedure, shortened: (§3)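 A small sprayer delivered the diluted WP or EC formulation (500 L/ha water, 0.1% v/v spreader) over emerged seedlings in upland soil pots. Damage relative to untreated plants was graded visually from 0 to 100% three weeks or so later (days 20-23).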

[15] = system: velvetleaf (Abutilon theophrasti), ABUTH; assay: Test Example 2 post-emergence (foliage treatment) herbicidal activity, ABUTH; details: 63 g a.i./ha
Procedure, shortened: as §3

[16] = system: rice (Oryza sativa L.), ORYSA; assay: Test Example 2 post-emergence (foliage treatment) herbicidal activity, ORYSA; details: 63 g a.i./ha
Procedure, shortened: as §2

[17] = system: wheat (Triticum aestivum L.), TRZAX; assay: Test Example 2 post-emergence (foliage treatment) herbicidal activity, TRZAX; details: 63 g a.i./ha
Procedure, shortened: as §3

[18] = system: corn (Zea mays L.), ZEAMX; assay: Test Example 2 post-emergence (foliage treatment) herbicidal activity, ZEAMX; details: 63 g a.i./ha
Procedure, shortened: as §3

[19] = system: soybean (Glycine max Merr.), GLXMA; assay: Test Example 2 post-emergence (foliage treatment) herbicidal activity, GLXMA; details: 63 g a.i./ha
Procedure, shortened: as §3

[20] = system: green foxtail (Setaria viridis L.), SETVI; assay: Test Example 2 post-emergence (foliage treatment) herbicidal activity, SETVI; details: 63 g a.i./ha
Procedure, shortened: as §3

| Compound | Pre-emergence Herbicidal Activity ECHCG (growth controlling degree) [1] | Pre-emergence Herbicidal Activity DIGSP (growth controlling degree) [2] | Pre-emergence Herbicidal Activity SETVI (growth controlling degree) [3] | Pre-emergence Herbicidal Activity AMARE (growth controlling degree) [4] | Pre-emergence Herbicidal Activity SIDSP (growth controlling degree) [5] | Pre-emergence Herbicidal Activity ABUTH (growth controlling degree) [6] | Pre-emergence Herbicidal Activity ORYSA (growth controlling degree) [7] | Pre-emergence Herbicidal Activity TRZAX (growth controlling degree) [8] | Pre-emergence Herbicidal Activity ZEAMX (growth controlling degree) [9] | Pre-emergence Herbicidal Activity GLXMA (growth controlling degree) [10] | growth controlling degree, ECHCO [11] | growth controlling degree, DIGSP [12] | growth controlling degree, AMARE [13] | growth controlling degree, SIDSP [14] | growth controlling degree, ABUTH [15] | growth controlling degree, ORYSA [16] | growth controlling degree, TRZAX [17] | growth controlling degree, ZEAMX [18] | growth controlling degree, GLXMA [19] | growth controlling degree, SETVI [20] |
| --- | --- | --- | --- | --- | --- | --- | --- | --- | --- | --- | --- | --- | --- | --- | --- | --- | --- | --- | --- | --- |
| COc1c(Cl)cc(F)c(-c2nn(C)c(OC(F)F)c2Cl)c1NCCc1cccc(C)c1 [Compound 1-50] | 70% | 100% | 100% | 100% | 100% | 100% | 20% | 30% | 10% | 10% | 100% | 90% | 100% | 100% | 100% | 95% | 70% | 80% | 95% |  |
| COc1c(Cl)cc(F)c(-c2nn(C)c(OC(F)F)c2Cl)c1NC(=O)C=Cc1ccccc1C [Compound 1-253] | 20% | 70% | 50% | 100% | 30% | 40% | 10% | 0% | 0% | 0% | 80% | 30% | 100% | 100% | 100% | 70% | 50% | 40% | 80% | 100% |
| COc1c(Cl)cc(F)c(-c2nn(C)c(OC(F)F)c2Cl)c1NC(=O)C(C)(C)Oc1ccccc1 [Compound 1-38] | 0% | 10% | 20% | 20% | 0% | 0% | 0% | 0% | 0% | 0% | 50% | 20% | 100% | 100% | 100% | 40% | 10% | 10% | 30% | 50% |
